Data as given in article PMC5665932, “A novel peptide that improves metabolic parameters without adverse central nervous system effects” (Scientific Reports, 2017).
Where a SMILES comes first, the peptide text is derived from it.

Experiments:
Male C57BL/6J mice = format: in vivo; conditions: 0.1 or 1 mg/kg i.p. for 10 days
Method: Male C57BL/6J mice received a chronic treatment with Pep19 (0.1 or 1 mg/kg) or saline administrated i.p. for 10 days, once a day. The same animal was tested in the EPM and FST 30 and 35 minutes after the last injection, respectively.
Supplemental Figure 2. In vivo assays showing results of chronic treatment with Pep19 i.p. for 10 days. To further confirm the lack of in vivo effects of Pep19, it was chronically administrated for 10 days, and the behavior effects were evaluated in the tetrad cannabinoid tests, consisting of (a) catalepsy, (b) tail temperature, (c) locomotor activity and (d) hot plate test. Note that no […]
(saline) or Pep19 (one-way ANOVA followed by Tukey’s test, n = 6/group), […]
(a-d; * P<0.05). In the elevated plus maze (e, f) the anxiety-like activity of chronic administration was evaluated following i.p. injections of 0.1 or 1 mg/kg […]
groups treated with vehicle or Pep19 (one-way ANOVA followed by Tukey’s […]
locomotor (g) and speed travelled (h) in the elevated plus maze. In the forced swim test (i), chronic administration of Pep19 i.p. for 10 days produced no significant differences (one-way ANOVA followed by Tukey’s test, n = 6-7/ […]

Male Wistar rats [1] = assay: Forced swim test; format: in vivo; conditions: first 5 min of the swim test, n = 6/group (Pep19), n = 8–10/group (rimonabant)
Method: The forced swim test was based on previous designs. Male Wistar rats were placed in a cylindrical plexiglass tank (50 cm high and 30 cm diameter) filled with water (19 °C) up to a level of 25 cm from the bottom. The animal’s behavior during the first 5 min of the swim test was scored by a trained observer and the following measures were taken: (1) time spent swimming, defined as movements of all four limbs, swimming around the tank or diving and (2) time spent floating, defined as the time the animal remained immobile with only occasional slight movements to keep the body balanced and the nose above the water.

C57BL/6J mice = assay: Tetrad cannabinoid tests (catalepsy, tail temperature, locomotor activity, hot plate); format: in vivo; conditions: n = 6/group
Method: C57BL/6J mice were treated i.p. with Pep19 (0.1 or 1 mg/kg), the CB1R agonist WIN55,212-2 (5 mg/kg) or vehicle (n = 6 per group) and evaluated in the tetrad cannabinoid tests. Another group of animals received Pep19 (0.1 or 1 mg/kg) or saline i.p. for 10 days, once a day. In the last day of treatment the animals were subjected to the tetrad cannabinoid tests 30 minutes after the i.p. administration. The CB1 agonist WIN55,212-2 (5 mg/kg) was administrated i.p. 30 minutes before the experiments as a positive control (n = 6 per group).
It was assayed by the bar test[40], 30 min after drug administration. Briefly, each mouse was placed on a bar oriented parallel to and approximately 4 cm above the bench surface. Cataleptic behavior was defined as the time the animal remained motionless holding on to the bar; cutoff = 300 s[41].
It was determined by using a thermal probe (Thermocom®, Nashua, NH 03062, EUA) positioned 50 cm of the animal. The mean of five pictures of five different tail regions was compared between a basal evaluation and another observation 35 min after drug administration.
It was determined by an open field test, in which a mouse was placed in a circular cage (40 cm diameter), 37 min after drug administration. The distance traveled by the animal was recorded for 10 min by the software ANY-MAZE (Stoelting).
The mouse was placed on a heated plate at 56 °C. An experimenter measured the time it took for the mouse to lick the paws or jump off of the hot plate; cutoff = 30 s[42]. The variation between a basal evaluation and another one taken 45 min after drug administration was defined as the result.

CB1R = molecular target: T1, CB1R (Mus musculus, UniProt P47746); assay: Displacement of [3H]SR141716A binding, membranes of 3T3-L1 cells; conditions: membranes (250 μg) of 3T3-L1 cells endogenously expressing CB1R, [3H]SR141716A 3 nM, Pep19 0–10 μM, 1 h at 30 °C, pH 7.8, n = 3; read-out: IC50, displaces [3H]SR141716A binding
T1 construct: Membranes were prepared from 3T3-L1 cells endogenously expressing CB1R; endogenous in cells; host or cells: 3T3-L1 cells (membranes)
Method: Membranes were prepared from 3T3-L1 cells endogenously expressing CB1R, and displacement ligand binding assays were carried out as previously described[8] with minor modifications. Briefly, membranes (250 μg) were incubated with [^3H] SR141716A (3 nM) in 50 mM Tris-Cl, pH 7.8, containing 1 mM EGTA, 5 mM MgCl2, and protease inhibitor cocktail in the presence of Pep19 (0–10 μM) for 1 h at 30 °C. At the end of the incubation period, membranes were filtered using a Brandel filtration system and GF/B filters (presoaked for 2 h at room temperature with 0.1% polyethyleneimine containing 0.2% fatty acid free BSA), filters were washed 3 times with ice-cold 50 mM Tris-Cl (pH 7.4) and bound radioactivity measured using a liquid scintillation counter.
Supplemental Figure 1. Ligand binding studies with Pep19. Membranes were prepared from 3T3L-1 cells endogenously expressing CB1R, and displacement ligand binding assays were carried out as previously described8 with minor modifications. Membranes (250 μg) were incubated with [3H]SR141716A (3 nM) in 50 mM Tris-Cl, pH 7.8, containing 1 mM EGTA, 5 mM MgCl2, and protease inhibitor cocktail in the presence of Pep19 (0-10 μM).
Values in the absence of Pep19 were taken as 100%. Data represent mean ± […]
(1 picture or pasted object on this page, not shown here)

Male Wistar rats [2] = assay: Elevated plus maze; format: in vivo; conditions: 100–600 µg/kg, one hour after administration, 5 min, n = 7–9/group
Method: Male Wistar rats were tested in a wooden-made elevated plus maze according to Hefner and Holmes[43] one hour after vehicle or Pep19 i.p. administration (100–600 µg/kg). The percentage of entries, time spent in the open arms, and the number of enclosed arms entries for 5 min were analyzed by the Anymaze Software (version 4.5, Stoelting, USA). Locomotor activity and speed traveled were also recorded.

HeLa cells = format: cell-based; conditions: up to 100 µM, n = 3/group
Method: (§1) HeLa and HEK293-T cells were cultured in DMEM (Dulbecco’s Modified Eagle Medium, Gibco®, USA) containing 10% fetal bovine serum (complete medium), penicillin and streptomycin (Gibco®, USA) at 37 °C and in presence of 5% of CO2. For cell counting, single cell suspension of HeLa and HEK293-T cells were rinsed with PBS and treated with 0.4% Trypan blue in PBS for 90 s. Excess dye was removed, and the cells were washed twice with PBS before counting. For a control of 100% permeabilized cells they were treated with 50% ethanol for 1 min and then stained as described above. In all of the experiments cellular viability was greater than 98% (data not shown). The MTT (3-(4,5-dimethylthiazol-2-yl)-2,5-diphenyltetrazolium bromide) tetrazolium reduction assays were conducted in a 96-well format. The optical density was measured at 570 nm using a SpectraMax M2 (Molecular Devices, Sunnyvale, CA, USA). Three independent experiments were conducted in triplicates for each treatment.

HEK293T cells = format: cell-based; conditions: up to 100 µM, n = 3/group
Method: as §1

DIO Wistar rats = assay: Tail-cuff blood pressure and heart rate in DIO rats; format: in vivo; conditions: oral by gavage, mean ± SEM
Method: Measurements of systolic blood pressure were performed at the proximal part of the tail, by a tail-cuff method using the Kent RTBP2000 system and the Kent RTB001-R data acquisition system (Kent Scientific Corporation, Torrington, CT, USA) from 9 to 11 a.m. Before measurements, rats were warmed for 10 min and three stable consecutive measurements were taken and averaged after animals have been trained for proper adaptation to the procedures.

T1 sequence (P47746 whole entry): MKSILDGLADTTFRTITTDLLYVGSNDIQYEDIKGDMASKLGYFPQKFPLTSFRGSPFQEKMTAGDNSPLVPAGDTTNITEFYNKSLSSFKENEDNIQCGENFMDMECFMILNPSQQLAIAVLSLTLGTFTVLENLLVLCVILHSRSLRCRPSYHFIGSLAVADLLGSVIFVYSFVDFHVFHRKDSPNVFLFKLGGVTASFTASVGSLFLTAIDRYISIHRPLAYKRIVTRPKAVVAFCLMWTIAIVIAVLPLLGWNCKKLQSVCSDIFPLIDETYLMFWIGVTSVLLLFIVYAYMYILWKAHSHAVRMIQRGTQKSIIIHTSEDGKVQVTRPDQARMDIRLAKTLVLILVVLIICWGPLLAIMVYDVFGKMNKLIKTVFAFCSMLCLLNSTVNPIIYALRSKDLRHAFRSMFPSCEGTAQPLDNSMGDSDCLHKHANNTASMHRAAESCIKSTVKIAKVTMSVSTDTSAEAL

CC[C@H](C)[C@H](NC(=O)[C@@H](NC(=O)[C@@H](N)CC(=O)O)[C@@H](C)CC)C(=O)N[C@@H](C)C(=O)N[C@@H](CC(=O)O)C(=O)N[C@@H](CC(=O)O)C(=O)N[C@@H](CCC(=O)O)C(=O)N1CCC[C@H]1C(=O)N[C@@H](CC(C)C)C(=O)N[C@H](C(=O)O)[C@@H](C)O [Pep19] (H-DIIADDEPLT-OH)
elevated plus maze after chronic treatment: anxiety-like activity, locomotor and speed travelled (Male C57BL/6J mice; 30 minutes after the last injection, n=6-7/group): no significant differences were observed
forced swim test after chronic treatment (Male C57BL/6J mice; 35 minutes after the last injection, n = 6-7/group): produced no
forced swim test: time spent swimming and time spent floating (Male Wistar rats [1]): produced no significant differences
cannabinoid tetrad after chronic treatment (C57BL/6J mice; 0.1 or 1 mg/kg i.p. for 10 days, once a day, tested 30 minutes after last administration): significant differences were observed between the groups treated with vehicle
cannabinoid tetrad (catalepsy, hot plate, locomotor activity, tail temperature) (C57BL/6J mice; 0.1 or 1 mg/kg i.p., single administration): has no effect on the cannabinoid tetrad
IC50 (CB1R): ~4.9 pM
elevated plus maze: distance moved, speed, ratio of open/total arms entries and time spent (Male Wistar rats [2]): did not alter
cell toxicity, MTT reduction assay (HeLa cells): has no ability to induce cell toxicity
cell toxicity, MTT reduction assay (HEK293T cells): has no ability to induce cell toxicity
Heart rate (DIO Wistar rats; 100 µg/Kg): 405.3 ± 2.3 (n = 3) beats/min
Heart rate (DIO Wistar rats; 300 µg/Kg): 399.9 ± 5.8 (n = 3) beats/min
Heart rate (DIO Wistar rats; 600 µg/Kg): 408.5 ± 4.1 (n = 3) beats/min
